Reference: patent publication US20260285816A1, “Piperazinyl-Modified Quinazolinyl-Aryl Urea Derivative, And Preparation Method And Use Thereof” (Guangxi Normal University, priority 2025, published 2026)
Where a name gives a salt, the structure may show the parent alone. Read-outs that look alike come from different tables or passages of the source. Values belong to the compound of their own block, whether it stands above or below them.

Experiments:
MG-63 cells = test: CCK-8 anti-proliferative assay, MG-63; format: cell-based, human; conditions: Homo sapiens, MG-63, co-incubated 48 h, read-out: Anti-proliferative activity (IC50 ± standard deviation) MG-63
Procedure, shortened: (§1)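 Absorbance at 450 nm after CCK-8 labelling (1–4 h, varying by cell line) gave inhibition relative to untreated control, from which IC50 values were derived. Compounds were applied at final concentrations of 1 to 30 μM in triplicate wells once cultures reached 70% confluency, with co-incubation for designated durations.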

[1] = tested on: embryonic lung fibroblasts (WI-38); test: CCK-8 anti-proliferative assay, normal cells WI-38; format: cell-based, human; conditions: Homo sapiens, read-out: Anti-proliferative activity (IC50 ± standard deviation) WI-38
Procedure, shortened: as §1

J82 cells = test: CCK-8 anti-proliferative assay, J82; format: cell-based, human; conditions: Homo sapiens, J82
Procedure, shortened: (§2)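 Cells seeded at 5,000/well and grown at 37° C., 5% CO2 to 70% confluency, then treated with compound at final 1, 2, 4, 6, 8, 12, 16, 24 and 30 μM in triplicate.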

T24 cells = test: CCK-8 anti-proliferative assay, T24; format: cell-based, human; conditions: Homo sapiens, T-24, co-incubated 48 h, read-out: Anti-proliferative activity (IC50 ± standard deviation) T24
Procedure, shortened: as §1

143B cells = test: CCK-8 anti-proliferative assay, 143B; format: cell-based, human; conditions: Homo sapiens, 143B, co-incubated 48 h, read-out: Anti-proliferative activity (IC50 ± standard deviation) 143B
Procedure, shortened: as §1

UM-UC-3 cells [2] = test: CCK-8 anti-proliferative assay, UM-UC-3; format: cell-based, human; conditions: Homo sapiens, UMUC3, co-incubated 48 h, read-out: Anti-proliferative activity (IC50 ± standard deviation) UM-UC-3
Procedure, shortened: as §2

A549 cells = test: CCK-8 anti-proliferative assay, A549; format: cell-based, human; conditions: for IC50: Homo sapiens, A549, co-incubated 48 h, read-out: Anti-proliferative activity (IC50 ± standard deviation) A549
Procedure, shortened: as §2

5637 cells = test: CCK-8 anti-proliferative assay, 5637; format: cell-based, human; conditions: Homo sapiens
Procedure, shortened: as §2

PANC-1 cells = test: CCK-8 anti-proliferative assay, PANC-1; format: cell-based, human; conditions: for IC50: Homo sapiens, PANC-1, co-incubated 48 h, read-out: Anti-proliferative activity (IC50 ± standard deviation) PANC-1
Procedure, shortened: as §1

MCF-7 cells = test: CCK-8 anti-proliferative assay, MCF-7; format: cell-based, human; conditions: Homo sapiens, MCF7, co-incubated 48 h, read-out: Anti-proliferative activity (IC50 ± standard deviation) MCF-7
Procedure, shortened: as §2

SK-OV-3 cells = test: CCK-8 anti-proliferative assay, SK-OV-3; format: cell-based, human; conditions: Homo sapiens, SK-OV-3, co-incubated 48 h, read-out: Anti-proliferative activity (IC50 ± standard deviation) SK-OV-3
Procedure, shortened: as §2

UM-UC-3 cells [3] = test: Cell cycle analysis (PI staining, flow cytometry), UM-UC-3; format: cell-based, human
Description: Tumor cells (T24, UM-UC-3, 143B, BxPC-3) in logarithmic growth phase were inoculated into 70 mm culture dishes. After 70% confluency was reached, medium was replaced and treated with: compound 8-1j, ferroptosis inducer Erastin, or cell cycle blocker paclitaxel (PTX) for a specified duration. Post-incubation, cells were trypsinized, collected, centrifuged, and washed 2 times with pre-cooled phosphate-buffered saline (PBS). Pre-cooled 75% ethanol was added dropwise during vortexing for fixation at −20° C. overnight. After centrifugation (10 min), supernatant was discarded. Cells were rewashed with PBS and centrifuged. Following kit instructions (Beyotime, C1052, China), 0.5 mL staining buffer, 25 μL PI (propidium iodide) stain (20×), and 10 μL RNase A (50×) were mixed per sample. Cells were resuspended in PI staining solution and incubated at 37° C. in dark for 30 min (gentle shaking every 10 min). Samples were filtered through 200-mesh filters, transferred into a flow tube, and analyzed via BD FACSVerse flow cytometer. All experiments were conducted in 3 repeats. Compounds 8-2h and 8-2j were evaluated identically.

HeLa cells = test: CCK-8 anti-proliferative assay, HeLa; format: cell-based, human; conditions: for IC50: Homo sapiens, HeLa, co-incubated 48 h, read-out: Anti-proliferative activity (IC50 ± standard deviation) HeLa
Procedure, shortened: as §2

BxPC-3 cells = test: CCK-8 anti-proliferative assay, BxPC-3; format: cell-based, human; conditions: for IC50: Homo sapiens, BXPC-3, co-incubated 48 h, read-out: Anti-proliferative activity (IC50 ± standard deviation) BxPC-3
Procedure, shortened: as §1

Hep G2 cells = test: CCK-8 anti-proliferative assay, Hep G2; format: cell-based, human; conditions: Homo sapiens, HepG2, co-incubated 48 h, read-out: Anti-proliferative activity (IC50 ± standard deviation) Hep G2
Procedure, shortened: as §1

[4] = tested on: immortalized ureteral epithelial cells (SV-HUC-1); test: CCK-8 anti-proliferative assay, normal cells SV-HUC-1; format: cell-based, human; conditions: Homo sapiens, SV-HUC1, normal cells, co-incubated 48 h, read-out: Anti-proliferative activity (IC50 ± standard deviation) SV-HUC-1
Procedure, shortened: as §2

[5] = background; cited from earlier work
[6] = background; cited from earlier work; remark: listed apart in the source
human osteosarcoma 143B = test: 143B tumor-bearing nude mouse model; format: in vivo, nude mice; conditions: 40 mg/kg oral gavage, every 2 d, 42 d
Description: Experimental method: bladder cancer J82 cells in logarithmic growth phase were trypsinized, collected, and then centrifuged, and resuspended in serum-free DMEM medium after discarding an original medium. Cell density was adjusted, and 0.2 mL cell suspension was subcutaneously inoculated into 5-week-old BALB/c-nu mice (sex-balanced, 18-20 g) under a laminar flow clean bench. Post-inoculation, bleeding at injection sites was monitored. When tumors reached 50-80 mm^3, nude mice with good tumor growth status were randomized into 5 groups (n=6/group) for intraperitoneal administration. Tumor volume and body weight were recorded on Day 0. […] Dosing occurred every 2 d for 42 d. After administering the drug, mice were monitored for diarrhea, anorexia, lethargy, and allergic reactions (e.g., pruritus). The body weight of nude mice was measured every 2 days, and the long and short diameters of the tumors in nude mice were measured by using a vernier caliper, then the recording was finished.
Construction of the human osteosarcoma 143B tumor-bearing nude mouse model followed similar procedures, with identical dosing frequency but administration route changed to oral gavage. Specifically: When tumors reached 60-90 mm^3, mice were randomized into 4 groups (n=6). […]

[7] = tested on: human pancreatic cancer BxPC-3; test: BxPC-3 tumor-bearing nude mouse model; format: in vivo, nude mice
[8] = WI-38, Table 9, co-incubated 48 h
[9] = Table 6, co-incubated 48 h, read-out: Anti-proliferative activity (IC50 ± standard deviation) J82
[10] = Table 6, co-incubated 48 h, read-out: Anti-proliferative activity (IC50 ± standard deviation) 5637

- IC50 (T24 cells; Table 10): 3.32 ± 0.15 µM
- IC50 (A549 cells; Table 13): 3.09 ± 0.24 µM
- IC50 (PANC-1 cells; Table 11): 5.46 ± 0.31 µM
- IC50 (MCF-7 cells; Table 12): 5.73 ± 0.59 µM
- IC50 (SK-OV-3 cells; Table 12): 4.61 ± 0.38 µM
- IC50 (HeLa cells; Table 12): 3.81 ± 0.25 µM
- IC50 (BxPC-3 cells; Table 11): 6.15 ± 0.47 µM
SMILES: COc1cc2ncnc(NCc3cccc(NC(=O)Nc4ccc(C(C)(C)C)cc4)c3)c2cc1OCCCCCCN1CCC(CN2CCN(c3ccccn3)CC2)CC1 [Compound 8-2j, N-(3-(((7-methoxy-6-((6-(4-((4-(pyridin-2-yl)piperazin-1-yl)methyl)piperidin-1-yl)hexyl)oxy)quinazolin-4-yl)amino)methyl)phenyl)-N′-(4-tert-butylphenyl)urea]
- IC50 (MG-63 cells; Table 11): 4.64 ± 0.32 µM
- IC50 ([1]; WI-38, Table 13, co-incubated 48 h): 8.79 ± 0.42 µM
- IC50 (J82 cells; Table 10, co-incubated 48 h, read-out: Anti-proliferative activity (IC50 ± standard deviation) J82): 3.42 ± 0.25 µM
- IC50 (J82 cells; read-out: IC50 values against J82 cells): 3.42 ± 0.25 µM
- IC50 (143B cells; Table 11): 5.59 ± 0.49 µM
- IC50 (UM-UC-3 cells [2]; Table 10): 4.66 ± 0.29 µM
- Activity against A549 versus the 8-1 to 8-23 series, in words (A549 cells): significantly enhanced activity against A549
- IC50 (5637 cells; Table 10, co-incubated 48 h, read-out: Anti-proliferative activity (IC50 ± standard deviation) 5637): 2.97 ± 0.23 µM
- IC50 (5637 cells; read-out: IC50 values against 5637 cells): 2.97 ± 0.23 µM
- Sensitivity of PANC-1, in words (PANC-1 cells): heightened sensitivity
- Effect of co-administration with PTX on cell cycle (UM-UC-3 cells [3]; UM-UC-3, with PTX): Synergistic effects
- Cell cycle arrest phase (UM-UC-3 cells [3]; UM-UC-3 cells (FIG. 45)): arrest cell cycle at G2/M phase
- Sensitivity of HeLa, in words (HeLa cells): sensitive
- Sensitivity of BxPC-3 / anti-proliferative activity against BxPC-3, in words (BxPC-3 cells): heightened sensitivity
- IC50 (Hep G2 cells; Table 12): 3.81 ± 0.24 µM
- IC50 ([4]; Table 13): 8.91 ± 0.72 µM

SMILES: COc1cc(OC)cc(N(CCNC(C)C)c2ccc3ncc(-c4cnn(C)c4)nc3c2)c1 [Erda, erdafitinib]
- Water solubility [5]: poor water solubility

SMILES: CNC(=O)c1cc(Oc2ccc(NC(=O)Nc3ccc(Cl)c(C(F)(F)F)c3)cc2)ccn1 [Sora, sorafenib, reference compound]
- IC50 (MG-63 cells; Table 7): 27.2 ± 1.89 µM
- Elimination/metabolism [6]: rapid elimination/metabolism
- Oral bioavailability [6]: low oral bioavailability
- IC50 (143B cells; Table 7): 22.7 ± 1.59 µM
- IC50 (UM-UC-3 cells [2]; Table 6): 14.3 ± 1.51 µM
- Water solubility [5]: poor aqueous solubility
- IC50 (PANC-1 cells; Table 7): 8.13 ± 0.56 µM
- IC50 (SK-OV-3 cells; Table 9): 13.8 ± 0.78 µM
- Sensitivity of BxPC-3 / anti-proliferative activity against BxPC-3, in words (BxPC-3 cells): weak anti-proliferative activity
- IC50 (BxPC-3 cells; Table 7): 13.4 ± 1.27 µM
- IC50 ([4]; Table 9): 10.8 ± 0.54 µM

SMILES: N#CC1(c2ccc(NC(=O)c3cccnc3NCc3ccncc3)cc2)CCCC1 [Apat, apatinib mesylate, reference compound]
- IC50 (MG-63 cells; Table 7): > 30 µM
- IC50 (143B cells; Table 7): 28.4 ± 1.29 µM
- Tumor inhibition (human osteosarcoma 143B): weak tumor inhibition activity

SMILES: Nc1ccn([C@@H]2O[C@H](CO)[C@@H](O)C2(F)F)c(=O)n1 [Gem, gemcitabine, reference compound]
- Mice manifesting anorexia and emaciation after 4 doses ([7]; 24 mg/kg oral gavage): 50%
- Nude mice that died within 16 d ([7]; 24 mg/kg oral gavage, n=6): 3 of 6
- Toxicity observations ([7]; oral gavage, gemcitabine 24 mg/kg, 8-2h 12, 24, 36 mg/kg): significant gastrointestinal reactions

- IC50 (T24 cells; Table 6): 24.8 ± 0.62 µM
- IC50 (A549 cells; Table 8): 26.4 ± 2.59 µM
- IC50 (PANC-1 cells; Table 7): 13.1 ± 0.78 µM
- IC50 (MCF-7 cells; Table 8): 20.3 ± 1.88 µM
- IC50 (SK-OV-3 cells; Table 9): 6.38 ± 0.51 µM
- IC50 (HeLa cells; Table 8): 23 ± 0.99 µM
- IC50 (BxPC-3 cells; Table 7): 10.8 ± 0.52 µM
SMILES: CCc1ccccc1NC(=O)Nc1cccc(CNc2ncnc3cc(OC)c(OCCCCCCN4CCN(CCN5CCOCC5)CC4)cc23)c1 [Compound 8-1g, N-(3-(((7-methoxy-6-((6-(4-(2-morpholinoethyl)piperazin-1-yl)hexyl)oxy)quinazolin-4-yl)amino)methyl)phenyl)-N′-(2-ethylphenyl)urea]
- IC50 (MG-63 cells; Table 7): 10.9 ± 0.93 µM
- IC50 [1, 8]: > 30 µM
- IC50 (J82 cells; [9]): 19.7 ± 0.98 µM
- IC50 (143B cells; Table 7): 19.3 ± 0.74 µM
- IC50 (UM-UC-3 cells [2]; Table 6): 26 ± 1.79 µM
- IC50 (5637 cells; [10]): 22.5 ± 0.79 µM
- IC50 (Hep G2 cells; Table 8): 12.7 ± 0.74 µM
- IC50 ([4]; Table 9): > 30 µM

- IC50 (T24 cells; Table 6): 6.83 ± 0.87 µM
- IC50 (A549 cells; Table 8): 10.9 ± 0.67 µM
- IC50 (PANC-1 cells; Table 7): 19.5 ± 1.53 µM
- IC50 (MCF-7 cells; Table 8): 6.64 ± 0.52 µM
- IC50 (SK-OV-3 cells; Table 9): 8.76 ± 0.74 µM
- IC50 (HeLa cells; Table 8): 6.32 ± 0.37 µM
- IC50 (BxPC-3 cells; Table 7): 7.78 ± 0.53 µM
SMILES: COc1cc2ncnc(NCc3cccc(NC(=O)Nc4ccc(F)c(C(F)(F)F)c4)c3)c2cc1OCCCCCCN1CCN(CCN2CCOCC2)CC1 [Compound 8-1q]
- IC50 (MG-63 cells; Table 7): 5.81 ± 0.63 µM
- IC50 [1, 8]: 7.97 ± 0.63 µM
- IC50 (J82 cells; [9]): 4.26 ± 0.31 µM
- IC50 (143B cells; Table 7): 4.57 ± 0.44 µM
- IC50 (UM-UC-3 cells [2]; Table 6): 6.25 ± 0.88 µM
- IC50 (5637 cells; [10]): 5.78 ± 0.69 µM
- IC50 (Hep G2 cells; Table 8): 7.09 ± 0.35 µM
- IC50 ([4]; Table 9): 7.61 ± 0.41 µM
